Assay results from patent US20100249419A1, “UTILIZATION OF NOVEL COMPOUNDS WITH AMYLOID AFFINITY AND METHOD OF PRODUCING THE SAME” (NIHON MEDI-PHYSICS CO., LTD., priority 2007, published 2010).

How the values were obtained:
[1] = test system: Salmonella typhimurium TA100; test: Reverse mutation test (Ames test), TA100; format: cell-based
Procedure: (§1) In order to examine gene mutagenicity of Compounds 3, 5 and 8, reverse mutation test using Salmonella typhimurium TA98 and TA100 (hereinafter referred to as Ames test) was conducted.
(§2) The test was conducted without addition of S9mix and with addition of S9mix. Dimethylsulfoxide (hereinafter referred to as DMSO) was used as a negative control. A positive control was 2-(2-furyl)-3-(5-nitro-2-furyl)acrylamide (hereinafter referred to as AF-2) in case S9mix was not added, and 2-aminoanthracene (hereinafter referred to as 2-AA) in case S9mix was added.
(§3) As a sample solution to be added to a test plate, each compound was dissolved in DMSO to prepare a solution at a concentration of 50 mg/mL, and further, each solution was diluted with DMSO to prepare a solution with 7 dosage (geometric ratio 3). As a sample solution for preparing a sample of positive control, when TA98 was used as a test strain without addition of S9mix, a solution of AF-2 (compound concentration: 1 μg/mL) in DMSO was prepared; when TA100 was used as a test strain without addition of S9mix, a solution of AF-2 (compound concentration: 0.1 μg/mL) in DMSO was prepared; when TA98 was used as a test strain with addition of S9mix, a solution of 2-AA (compound concentration: 5 μg/mL) in DMSO was prepared; and when TA100 was used as a test strain with addition of S9mix, a solution of 2-AA (compound concentration: 10 μg/mL) in DMSO was prepared.
(§4) After each sample solution to be examined and a test strain (TA98 or TA100) were mixed together so as to make the addition amount of each sample to be 0.1 mL/plate, the mixture was multilayered using soft agar on a medium of a test plate, and then incubated at 37° C. for 48 hours. Separately, after each sample solution to be examined, S9mix and a test strain were mixed together so as to make the addition amount of each sample to be 0.1 mL/plate, the mixture was multilayered using soft agar on a medium of a test plate, and then incubated at 37° C. for 48 hours. On the other hand, only DMSO was used as a sample solution to perform the same procedure as above for the negative control. […]

[2] = test system: Salmonella typhimurium TA98; test: Reverse mutation test (Ames test), TA98; format: cell-based
Procedure: as §1, §2, §3, §4

[3] = [^125I]-labeled compounds, normal mice; cited from earlier work
[4] = target: T1, aggregated Aβ (Aβ1-42) amyloid (Homo sapiens, UniProt P05067); test: In vitro binding test: inhibition of [^125I]3′-I-BTA-0 binding to amyloid; details: [^125I]3′-I-BTA-0 400 pmol/L, amyloid 1 μmol/L, 22° C., 3 hours
T1 construct: Aβ1-42 (manufactured by Wako) was dissolved in phosphate buffer (pH 7.4); purchased Wako
T1 sequence (P05067 672-713): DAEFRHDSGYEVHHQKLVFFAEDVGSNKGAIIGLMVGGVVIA
Procedure: Affinity of the present compounds with amyloid was examined by the following in vitro binding tests.
The measured radioactivity level was defined as the background radioactivity level, and used in the calculation of the inhibition ratio (hereinafter referred to as BG).
(9) Using the radioactivity levels measured above in (7) and (8), the inhibition ratio was determined by the following formula (1).
A graph in which values converted by probit transformation from the obtained inhibition ratios were plotted relative to logarithms of concentrations of compounds for evaluation was prepared to obtain an approximate straight line by the least square method.

[5] = International Publication No. WO03/106439; cited from earlier work
[6] = target: T2, aggregated Aβ (Aβ1-42) injected into amygdaloid nucleus (Homo sapiens, UniProt P05067); test: Confirmation of imaging of amyloid in brain (ex vivo autoradiogram, Aβ1-42); parameters: species or system male Wistar rat; details: brain slice 60 minutes after tail vein injection
T2 construct: Aβ1-42 (manufactured by Wako) was dissolved in phosphate buffer (pH 7.4); purchased Wako
T2 sequence (P05067 672-713): as above
Procedure: The following experiment was carried out in order to examine whether amyloid in brain can be imaged by the compound of the present invention.
(1) Aβ1-42 (manufactured by Wako) was dissolved in phosphate buffer (pH 7.4) and shaken at 37° C. for 72 hours, to obtain a 1 mg/mL suspension of aggregated Aβ (hereinafter referred to as amyloid suspension in the Examples).
(2) 2.5 μL (corresponding to […]) of the amyloid suspension was injected into an amygdaloid nucleus on one side of a male Wistar rat (7-week old). As a control, 2.5 μL of a phosphate buffered physiological saline solution (pH 7.4) was injected into an amygdaloid nucleus on the other side of the rat. The rats were examined 1 day after the injection of the amyloid suspension and the phosphate buffered physiological saline solution (pH 7.4).
(3) Compound 1 was dissolved in a 10 mg/mL ascorbic acid-containing physiological saline solution to obtain a sample solution (22 MBq/mL in radioactivity concentration in the sample solution). This solution was injected under thiopental anesthesia into the rat through the tail vein (dosage: 0.5 mL, dosed radioactivity: 11-13 MBq equivalent).
(4) Brain was removed 60 minutes after the injection to prepare a brain slice of 10 μm in thickness with a microtome (type: CM3050S, manufactured by LEICA). The brain slice was exposed to an imaging plate for 20 hours, and then image analysis was carried out by use of a Bio-imaging Analyzer (type: BAS-2500; manufactured by FUJIFILM Corporation).
(5) After the completion of the image analysis using the Bio-imaging Analyzer, […]
Thus, it was confirmed that amyloid was deposited on the slice (FIG. 6b).
The same procedures as in Example 12 were performed except using a solution of Compound 2 in a 10 mg/mL ascorbic acid as a sample solution (the radioactive concentration of the sample solution was 25 MBq/mL).
(1) Aβ1-42 (manufactured by Wako) was dissolved in phosphate buffer (pH 7.4) and shaken at 37° C. for 72 hours, to obtain 1 mg/mL of a suspension of aggregated Aβ (hereinafter referred to as amyloid suspension in the Examples).
(3) A sample solution (30 MBq/mL in radioactivity concentration, Example 24) in which Compound 4 was dissolved in a 10 mg/mL ascorbic acid-containing physiological saline solution and a sample solution (30 MBq/mL in radioactivity concentration, Example 25) in which Compound 6 was dissolved in a 10 mg/mL ascorbic acid-containing physiological saline solution were prepared. This solution was injected under thiopental anesthesia into the rat through the tail vein (dosage: 0.5 mL, dosed radioactivity: 11-15 MBq equivalent).
Thus, it was confirmed that amyloid was deposited on the slice (FIG. 12 and FIG. 13).

[7] = Partition coefficient based on the octanol extraction method; format: physicochemical; details: octanol / 10 mmol/L phosphate buffer (pH 7.4); Table 6, Examples 20-21
Procedure: Partition coefficients based on the octanol extraction method (hereinafter referred to as log Poctanol) were measured, which are generally known as an indicator of permeability of compounds through the blood-brain barrier (hereinafter referred to as BBB).
A diethyl ether solution of Compound 1 prepared in Example 3 (Example 8), a diethyl ether solution of Compound 2 prepared in Example 6 (Example 9), and a diethyl ether solution of [^123I]-IMPY prepared in Reference Example 1 (Comparative Example 4) were each diluted with 10 mg/mL ascorbic acid-containing physiological saline solution, and adjusted to a radioactive concentration of 20-30 MBq/mL. To 2 mL of octanol, 10 μL each of the prepared sample solutions was added, 2 mL of 10 mmol/L phosphate buffer (pH 7.4) was added, followed by stirring for 30 seconds. After the mixture was centrifuged with a low-speed centrifuge (2000 rpm×60 min.), the octanol layer and the water layer were sampled each in an amount of 1 mL, and subjected to measurement of radioactivity count with an autowell gamma system (Type: ARC-301B, manufactured by Aloka). Using the obtained radioactivity count, log Poctanol was calculated in accordance with the equation (2).
A diethyl ether solution (Example 20) of Compound 4 prepared in Example 16, a diethyl ether solution (Example 21) of Compound 6 prepared in Example 19, and a diethyl ether solution (Comparative Example 7) of [^123I]-IMPY were each diluted with a 10 mg/mL ascorbic acid-containing physiological saline solution to adjust to a radioactive concentration of 20-30 MBq/mL. To 2 mL of octanol, 10 μL each of the prepared sample solution was added, and 2 mL of 10 mmol/L phosphate buffer (pH 7.4) was further added, followed by stirring for 30 seconds. After the mixture was centrifuged with a low-speed centrifuge (2000 rpm×60 min.), the octanol layer and the water layer were sampled each in an amount of 1 mL, and subjected to measurement of radioactivity count with an autowell gamma system (Type: ARC-301B, manufactured by Aloka). Using the obtained radioactivity count, logPoctanol was calculated in accordance with the equation (4).

[8] = Transferability into brain and clearance; format: in vivo, male Wistar rats; details: intravenous injection, rats, Table 7
Procedure: Using Compound 1 (Example 10) and Compound 2 (Example 11), a time course change of radioactive accumulation in brain of male Wistar rats (7-week old) was measured.
A diethyl ether solution of Compound 1 (Example 10) prepared in Example 3, a diethyl ether solution of Compound 2 (Example 11) prepared in Example 6 and a diethyl ether solution of [^123I]-IMPY (Comparative Example 5) prepared in Reference Example 1 were each diluted with 10 mg/mL ascorbic acid-containing physiological saline solution to adjust to a radioactive concentration of 8-12 MBq/mL. 0.05 mL each of the prepared sample solutions was injected under thiopental anesthesia into the tail vein of the rats. The rats were sacrificed by bleeding from abdominal artery, and brains were removed and subjected to measurement of mass of brains and further subjected to measurement of radioactivity (hereinafter referred to as A in this Example) with a single channel analyzer (detector type: SP-20 manufactured by OHYO KOKEN KOGYO Co., Ltd.) 2, 5, 30 and 60 minutes after the injection. Further, the radioactivity level of the rest of the whole body was measured in the same manner as above (hereinafter referred to as B in this Example). Using these measurement results, radioactive distribution per unit weight of brain (% ID/g) at the respective time points were calculated in accordance with the following formula (3).
Three animals were used for the experiment at the respective time points.
Using Compound 4 and Compound 6, a time course change of radioactive accumulation in brain of male Wistar rats (7-week old) was measured.
Compound 4 (Example 22), Compound 6 (Example 23) and a solution of [^123I]-IMPY (Comparative Example 8) prepared above in Reference Example 1 were each diluted with a 10 mg/mL ascorbic acid-containing physiological saline solution to prepare solutions (20-31 MBq/mL in radioactive concentration). 0.05 mL each of the prepared sample solutions was injected under thiopental anesthesia into the tail vein of the respective Wistar rat (7-week old). The rats were sacrificed by bleeding from abdominal artery, and brains were removed and subjected to measurement of mass of brains and further subjected to measurement of radioactivity (hereinafter referred to as A in this Example) with a single channel analyzer (detector type: SP-20 manufactured by OHYO KOKEN KOGYO Co., Ltd.) 2, 5, 30 and 60 minutes after the injection. Further, the radioactivity level of the rest of the whole body was measured in the same manner as above (hereinafter referred to as B in this Example). Using these measurement results, radioactive distribution per unit weight of brain (% ID/g) at the respective time points were calculated in accordance with the following formula (5).

[9] = TA100, without addition of S9mix
[10] = TA98, without addition of S9mix

Compound: CCC[CH2][Sn]([CH2]CCC)([CH2]CCC)[c]1ccc2nc(-c3ccc(OCCO)cc3)cn2c1 [Compound 9, 6-tributylstannyl-2-[4′-(2″-hydroxyethoxy)phenyl]imidazo[1,2-a]pyridine]
- Mutagenicity ([1]; TA100, with addition of S9mix): Negative
- Mutagenicity [1, 9]: Negative
- Mutagenicity ([2]; TA98, with addition of S9mix): Negative
- Mutagenicity [2, 10]: Negative

Compound: CN(C)c1ccc(-c2nc3ccc(I)cc3o2)cc1 [IBOX, 6-iodo-2-[4′-(N,N-dimethylamino)phenyl]benzoxazole]
- Clearance from normal tissues [3]: insufficient in clearance from normal tissues

Compound: OCCOc1cccc(-c2cn3cc(I)ccc3n2)c1 [Compound 5, 2-[3′-(2″-hydroxyethoxy)phenyl]-6-iodoimidazo[1,2-a]pyridine]
- Mutagenicity ([1]; TA100, with addition of S9mix): Negative
- Mutagenicity [1, 9]: Negative
- Mutagenicity ([2]; TA98, with addition of S9mix): Negative
- Mutagenicity [2, 10]: Negative

Compound: Nc1c(/N=N/c2ccc(-c3ccc(/N=N/c4cc(S(=O)(=O)O)c5ccccc5c4N)cc3)cc2)cc(S(=O)(=O)O)c2ccccc12 [Congo Red, reference compound]
- IC50 [4]: > 1000 nM

Compound: CN(C)c1ccc(/C=C/c2ccc(I)cc2)cc1 [m-I-SB, (E)-4-dimethylamino-4′-iodostilbene]
- Clearance from normal tissues [3]: insufficient in clearance from normal tissues

Compound: CC(=C(C#N)C#N)c1ccc2cc(N(C)CCF)ccc2c1 [FDDNP, 2-(1-{6-[(2-fluoroethyl)(methyl)amino]-2-naphthyl}ethylidene)malononitrile]
- Reverse mutation test result [5]: positive

Compound: CN(C)c1ccc(-c2cn3cc(I)ccc3n2)cc1 [IMPY, 6-iodo-2-[4′-(N,N-dimethylamino)phenyl]imidazo[1,2-a]pyridine]
- Reverse mutation test result [5]: positive

Compound: 2-[3′-(2″-hydroxyethoxy)phenyl]-6-[^123I]iodoimidazo[1,2-a]pyridine [Compound 4]
- Accumulation of radioactivity in amygdaloid nucleus on the amyloid-injected side [6]: marked accumulation of radioactivity
- logPoctanol value [7]: 2.5
- Radioactive distribution per unit weight of brain ([8]; After 2 min.): 0.56 % ID/g
- Radioactive distribution per unit weight of brain ([8]; After 5 min.): 0.28 % ID/g
- Radioactive distribution per unit weight of brain ([8]; After 30 min.): 0.04 % ID/g
- Radioactive distribution per unit weight of brain ([8]; After 60 min.): 0.01 % ID/g

Compound: CCOc1ccc(-c2cn3cc(I)ccc3n2)cc1 [Compound 8, 2-(4′-ethoxyphenyl)-6-iodoimidazo[1,2-a]pyridine]
- Mutagenicity ([1]; TA100, with addition of S9mix): Negative
- Mutagenicity [1, 9]: Negative
- Mutagenicity ([2]; TA98, with addition of S9mix): Negative
- Mutagenicity [2, 10]: Negative

Compound: CN(C)c1ccc(-c2nc3ccc(I)cc3s2)cc1 [TZDM, 6-iodo-2-[4′-(N,N-dimethylamino)phenyl]benzothiazole]
- Clearance from normal tissues [3]: insufficient in clearance from normal tissues
